Data set [1] relates to TP53 WT colon cancer cell line Ls174T. Description: CellTiter-Glo growth inhibition, Ls174T. The class given is cell-based. As to conditions: 72-hour exposure, FIG. 1. Here is the method:
(§1) Two examples of additional comparisons are provided below for colon cancer cell lines (TP53 WT colon cancer cell line Ls174T and TP53 WT colon cancer cell line LoVo).
(§2) In these assays, two 96 well plates of each cell line were seeded with 5,000 cells per well in a total volume of […] per well and left incubating overnight. The following day, the cells were exposed to different concentrations of NUC013. At the end of a 72-hour exposure period, the plates were removed for CellTiter-Glo® assay. Luminescence was recorded on a Synergy 4.0.

The subject of another data set is HeLa cells. Description: Nucleotide concentrations in HeLa cell extracts by HPLC (RNR inhibition). It is filed as cell-based. As to conditions: 50 μM, 16 h incubation. An excerpt: The more common approach is to synthesize a nucleoside diphosphate and then determine whether it inhibits RNR or p53R2. […] Nucleic Acids Research. […] The other approach is to expose cells in tissue culture to the drug and then attempt to determine whether deoxynucleotide synthesis is inhibited when compared to control cells. Measurement of deoxynucleotides may be done by radioimmunoassay or by HPLC. The disadvantage of a radioimmunoassay is that it can only measure a single deoxynucleotide triphosphate (dNTP) at a time and typically requires a tritiated nucleotide, but it is the preferred method for measuring dCTP [Piall E M, Aherne G W, Marks V. The quantitative determination of 2′-deoxycytidine-5′ triphosphate in cell extracts by radioimmunoassay. Anal Biochem. 1986; 154(1):276-281 incorporated herein by reference in its entirety]. On the other hand, HPLC can measure multiple nucleotides without requiring radiolabeling, but has been noted to quantitate poorly dC nucleotides, possibly as an artifact of an influx of dCTP from the medium [Bianchi V, Pontis E, Reichard P. Changes of deoxyribonucleoside triphosphate pools induced by hydroxyurea and their relation to DNA synthesis. J Biol Chem. 1986; 261(34): 16037-16042 incorporated herein by reference in its entirety]. This approach was used to determine RNR inhibition by NUC013.
Briefly, HeLa cells ([…]) were grown in the presence or absence of drug, in this case gemcitabine or NUC013. At the end of a 16 h incubation, the medium was aspirated, cells monolayers washed twice with PBS, and used for nucleotide extraction. The nucleotides were extracted from cell monolayers by the addition of ice-cold 80% acetonitrile (ACN) for 1 h. The extracts were centrifuged to remove cellular debris and loaded on a SAX column (100 mg, Supelco) pre-conditioned with methanol, water and ACN. Once the sample was completely effused, the cartridge was washed with 3 ml 80% ACN and 3 ml water and eluted with 1M KCl. The eluent was filtered through a 0.45 μm filter membrane (Roth) and analyzed by HPLC. Peak identification of the different nucleoside mono-, di-, and triphosphates, was made from their characteristic UV absorption spectra and retention times compared with those of a mixture of standards run immediately before cell extracts. The area of individual peaks was measured using ChemStation software (Agilent).

The subject of data set [2] is TP53 WT colon cancer cell line LoVo. Nature of the data set: CellTiter-Glo growth inhibition, LoVo. The class given is cell-based. As to conditions: 72-hour exposure, FIG. 2. As to the method:
as §1, §2

The subject of data set [3] is HL-60 (leukemia, TP null). As to conditions: HL-60 nude mice.
Data set [4] relates to LoVo (colon cancer, TP WT). Description: Xenograft model, nude mice implanted with LoVo. The note with it: NUC041 treatment, 8 days following the end of treatment.
Data set [5] in a line: Pharmacokinetics after SC administration of NUC041 in phospholipid gel depot to mice. As to conditions: analyte in plasma following SC administration of NUC041 (100 mg/kg) to mice.
For data set [6] the following is noted: in vivo.

Where only a bound is given, the exact number is not on record here.

As a reminder, the GI50 is the concentration that inhibits growth by half. As to “4-amino-1-((2R,4R,5R)-3,3-difluoro-4- hydroxy-5- (hydroxymethyl)tetrahydrofuran-2- yl)pyrimidin-2(1I)-one hydrochloride [Gemcitabine, reference compound]”, the GI50 in data set [1] is above 50 µM. Further, in the data set on HeLa cells, the ADP is given as 15,639, the ATP is 26,296, the CTP is recorded as 1,297 and the GTP was 2,036. Besides, in the data set on HeLa cells, the UTP was 4,801; the “dATP, peak area, AU” value is on record as 0 AU; the “dGDP, peak area, AU” value is listed as 7.95 AU; the “dTDP, peak area, AU” value came to 43.4 AU. In the data set on HeLa cells, the “dUTP, peak area, AU” value is 5.3 AU. Also, the GI50 in data set [2] is above 50 µM.
Regarding `Nc1ncn([C@H]2C[C@H](O)[C@@H](CO)O2)c(=O)n1` [Decitabine, 4-amino-1-((2R,4S,5R)-4-hydroxy-5-(hydroxymethyl)tetrahydrofuran-2-yl)-1,3,5-triazin-2(1I)-one], the “mice dead or moribund prior to the conclusion of the study” value in data set [3] (5 mg/kg per day for three consecutive days a week for three weeks) is given as “Four of ten”.
Regarding `C[Si](C)(C)OC[C@H]1O[C@@H](n2cnc(N)nc2=O)C(F)(F)[C@@H]1O[Si](C)(C)C` [NUC041, 4-amino-1-((2R,4R,5R)-3,3-difluoro-4-(trimethylsilyloxy)-5-((trimethylsilyloxy)methyl)tetrahydrofuran-2-yl)-1,3,5-triazin-2(1H)-one], the “tumor weights less than saline controls” value in data set [4] was 26.6%. Also, the “hazard ratio (HR) vs saline control” value in data set [3] (31 mg/kg intravenously, oil in water emulsion) is on record as 0.51. The “AUClast (area under the plasma concentration versus time curve from 0 to last quantifiable sampling time)” value in data set [5] was 20.0 ng·h/mL. Moreover, the “pharmacokinetic advantage over NUC013” value in data set [6] is listed as “did not demonstrate a pharmacokinetic advantage over NUC013”.

For the origin of these results see US20190054103A1, “METHOD OF TREATMENT OF TP53 WILD-TYPE TUMORS WITH 2',2'-DIFLUORO-5-AZA-2'-DEOXYCYTIDINE OR PRODRUGS THEREOF” (priority 2016, published 2019).
